Entries after “also recorded” stand apart in the source; their conditions may differ.
What was measured:
[1] = test system: adult schizophrenia patients; experiment: 6-week adjunctive pimavanserin study: safety and adverse events; assay type: in vivo, human
Description: The effect of pimavanserin as an adjunctive treatment in adult schizophrenia patients with a persistent inadequate response (i.e., partial responders) to their existing antipsychotic therapy was tested. 396 patients with moderate-to-severe psychotic symptoms were randomized to receive either pimavanserin or placebo added to existing antipsychotic treatment.
Patients were administered a daily dose of pimavanserin or a placebo for six weeks. The dose started at 20 mg and could be adjusted to 34 mg or 10 mg between weeks 1 and 3. The majority of patients (56%) completed the study at the highest dose level.
The safety of the pimavanserin arm was similar to placebo, with no new signals observed. […] The overall number of SAEs and AEs leading to discontinuation was low. The most commonly reported AEs leading to discontinuation of treatment were from the psychiatric disorders system and seen in the active arm.

[2] = test system: scPCP+ARS(2h) treated male C57BL/6J mice; experiment: 10-min social interaction test in scPCP-treated mice given 2 h acute restraint stress (treatment-resistant model); assay type: in vivo; settings: risperidone 0.2, olanzapine 1, aripiprazole 1 or pimavanserin 3 mg/kg ip alone, 45 min prior to test
Description: Briefly, mice were habituated to the test arena (i.e., the NOR box) for 30 minutes prior to the test day. Pairs of mice, unfamiliar to each other, received either the same treatment (e.g., vehicle and vehicle; N=10 pairs) or different treatments (e.g., vehicle; N=10 and phencyclidine (PCP) 10 mg/kg; N=10). After washout, they were placed in the test arena together for 10 minutes. A heavy object made of Plexiglas or metal was placed in the center of the test arena to quantify the time and nature of interaction of the test animals with an unfamiliar object or an unfamiliar animal. After the 10 min test phase, the object and the arena were cleaned with 70% ethanol to remove any olfactory trails. Behavior was recorded on video for subsequent blind scoring.
The following four behaviors were scored for each animal: • a) Sniffing: A normal mouse engages in sniffing the con-specific mouse's body, including the anogenital area • b) Following: A normal mouse pursues a con-specific mouse around the arena • c) Avoiding: A normal mouse avoids the con-specific mouse and move away from a pursuing mouse if approached • d) Object Exploration: A normal mouse explores the object that is placed in the center of the test arena.
Acute restraint stress (ARS) protocol: Mice were assigned to one of two groups: either the control group (non-stress) or the stress group. Generally, mice of the stress group were restrained in well-ventilated 50 mL tubes. After the restraint period of 1 or 2 hours, the mice were transferred into a clean animal housing cage for 1-hour interval and thereafter went through the first social interaction test (different mice are used to test different groups).
Treatment resistant animal model: To establish this model, Acute restraint stress (ARS) was added to scPCP treatment. Two groups (vehicle+ARS; scPCP+ARS) and their controls (vehicle+saline; scPCP+saline) were used. ARS was applied for 1 or 2 hours and tested on SI 1 hour post-ARS.
(§1) The behavioral assay, ARS protocol, and scPCP-treatment as described in Example 2 were used. To test the effect of atypical APD and pimavanserin, alone or as con-administration, in scPCP-treated mice (N=10 pairs of mice per group) given 2 h ARS, risperidone (“Risp”) was administered as 0.2 mg/kg or 0.4 mg/kg ip; olanzapine (“Olan”) as 1.0 mg/kg ip; aripiprazole (“Aripi”) as 1.0 mg/kg ip; and pimavanserin (“Pim”) as 3 mg/kg ip to scPCP+ARS(2h) treated male C57BL/6J mice 45 minutes prior to the commencement of the social interaction task in the 10 min social interaction test. Plasma levels of risperidone were measured using a Triple Quad 6500+ mass spectrometer.

[3] = Plasma levels of risperidone in scPCP and ARS-treated mice (mass spectrometer); assay type: in vivo; settings: 3 mg/kg pimavanserin with 0.2 mg/kg risperidone
Description: as §1

SMILES: CC(C)COc1ccc(CNC(=O)N(Cc2ccc(F)cc2)C2CCN(C)CC2)cc1 [Pimavanserin, N-(4-Fluorophenylmethyl)-N-(1-methylpiperidin-4-yl)-N′-(4-(2-methylpropyloxy)phenylmethyl)carbamide]
- Patients who completed the study ([1]; 6-week study): Approximately 88%
- QT prolongation ([1]; 6-week study): Minimal QT prolongation
- Vital signs, weight, metabolic syndrome, and extrapyramidal symptoms compared to adjunctive placebo ([1]; 6-week study): did not result in clinically significant differences; also recorded: No effect was seen
- Any Related Serious Treatment-Emergent Adverse Event, Events n ([1]; Safety Analysis Set, N = 198): 2
- Any Related Serious Treatment-Emergent Adverse Event, Subjects (%) ([1]; Safety Analysis Set, N = 198): 0.5%
- Any Related Serious Treatment-Emergent Adverse Event, Subjects n ([1]; Safety Analysis Set, N = 198): 1
- Any Related Treatment-Emergent Adverse Event, Events n ([1]; Safety Analysis Set, N = 198): 46
- Any Related Treatment-Emergent Adverse Event, Subjects (%) ([1]; Safety Analysis Set, N = 198): 16.7%
- Any Related Treatment-Emergent Adverse Event, Subjects n ([1]; Safety Analysis Set, N = 198): 33
- Any Serious Treatment-Emergent Adverse Event, Events n ([1]; Safety Analysis Set, N = 198): 3
- Any Serious Treatment-Emergent Adverse Event, Subjects (%) ([1]; Safety Analysis Set, N = 198): 1.0%
- Any Serious Treatment-Emergent Adverse Event, Subjects n ([1]; Safety Analysis Set, N = 198): 2
- Any Treatment-Emergent Adverse Event Leading to Discontinuation or Study Termination, Events n ([1]; Safety Analysis Set, N = 198): 7
- Any Treatment-Emergent Adverse Event Leading to Discontinuation or Study Termination, Subjects (%) ([1]; Safety Analysis Set, N = 198): 2.5%
- Any Treatment-Emergent Adverse Event Leading to Discontinuation or Study Termination, Subjects n ([1]; Safety Analysis Set, N = 198): 5
- Any Treatment-Emergent Adverse Event, Events n ([1]; Safety Analysis Set, N = 198): 142
- Any Treatment-Emergent Adverse Event, Subjects (%) ([1]; Safety Analysis Set, N = 198): 40.4%
- Any Treatment-Emergent Adverse Event, Subjects n ([1]; Safety Analysis Set, N = 198): 80
- Any Serious Treatment-Emergent Adverse Event, Subjects (%) ([1]; Safety Analysis Set, N = 198, listed as pimavanserin): 1%
- Adverse events reported in at least 5% of patients ([1]; pimavanserin group, 6-week study): headache, somnolence, and insomnia
- Able to restore sniffing or decrease avoidance (SI deficit), drug alone [2]: Neither; also recorded: ineffective
- Pharmacokinetic effect of pimavanserin on risperidone drug levels [3]: not due to a pharmacokinetic effect
